What was measured:
Assay type in all cases: in vivo
[1] = system: blackgrass (Alopecurus myosuroides); assay: Postemergence herbicidal activity, blackgrass; conditions: foliar spray, visual after 2 weeks, 0 no injury, 100 complete kill
Description: (§1) Seeds of the desired test plant species were planted in Grace-Sierra MetroMix® 306 planting mixture, which typically has a pH of 6.0 to 6.8 and an organic matter content of about 30 percent, in plastic pots with a surface area of 64 square centimeters. When required to ensure good germination and healthy plants, a fungicide treatment and/or other chemical or physical treatment was applied. The plants were grown for 7-21 days in a greenhouse with an approximately 15 hr photoperiod which was maintained at about 23-29° C. during the day and 22-28° C. during the night. Nutrients and water were added on a regular basis and supplemental lighting was provided with overhead metal halide 1000 Watt lamps as necessary. The plants were employed for testing when they reached the first or second true leaf stage. A weighed amount of each test compound, determined by the highest rate to be tested, was placed in a 20 mL glass vial and was dissolved in 4 mL of a 97:3 v/v (volume/volume) mixture of acetone and dimethyl sulfoxide to obtain concentrated stock solutions. […] The concentrated stock solutions obtained were diluted with an aqueous mixture containing acetone, water, iso-propyl alcohol, dimethyl sulfoxide, Atplus 411F crop oil concentrate, and Triton X-155 surfactant (methylenebisdiamyl phenoxy polyethoxy ethanol) in a 48.5:39:10:1.5:1.0:0.02 v/v ratio to obtain spray solutions of known concentration. The solutions containing the highest concentration to be tested were prepared by diluting 2 mL aliquots of the stock solution with 13 mL of the mixture and lower concentrations were prepared by dilution of appropriate smaller portions of the stock solution. Approximately 1.5 mL aliquots of each solution of known concentration were sprayed evenly onto each of the test plant pots using a DeVilbiss atomizer driven by compressed air pressure of 2 to 4 psi (140 to 280 kilopascals) to obtain thorough coverage of each plant. Control plants were sprayed in the same manner with the aqueous mixture. In this test an application rate of 1 ppm results in the application of approximately 1 g/ha. The treated plants and control plants were placed in a greenhouse as described above and watered by sub-irrigation to prevent wash-off of the test compounds. After 2 weeks the condition of the test plants as compared with that of the untreated plants was determined visually and scored on a scale of 0 to 100 percent where 0 corresponds to no injury and 100 corresponds to complete kill.

[2] = system: chickweed (Stellaria media); assay: Postemergence herbicidal activity, chickweed; conditions: foliar spray, visual after 2 weeks, 0 no injury, 100 complete kill
Description: as §1

[3] = system: crabgrass (Digitaria sanguinalis); assay: Preemergence herbicidal activity, crabgrass; conditions: soil spray, visual after 3 weeks, 0 no injury, 100 complete kill or no germination
Description: (§2) The soil matrix was contained in plastic pots with a surface area of 161 square centimeters. When required to ensure good germination and healthy plants, a fungicide treatment and/or other chemical or physical treatment was applied. A weighed amount, determined by the highest rate to be tested, of each test compound was placed in a 20 mL glass vial and was dissolved in 8 mL of a 97:3 v/v (volume/volume) mixture of acetone and dimethyl sulfoxide to obtain concentrated stock solutions. […] The stock solutions obtained were diluted with a 99.9:0.1 mixture of water and Tween® 155 surfactant (ethoxylated sorbitan fatty acid ester) to obtain application solutions of known concentration. The solutions containing the highest concentration to be tested were prepared by diluting 4 mL aliquots of the stock solution with 8.5 mL of the mixture and lower concentrations were prepared by dilution of appropriate smaller portions of the stock solution. A 2.5 mL aliquot of each solution of known concentration was sprayed evenly onto the soil of each seeded pot using a Cornwall 5.0 mL glass syringe fitted with a TeeJet TN-3 hollow cone nozzle to obtain thorough coverage of the soil in each pot. Control pots were sprayed in the same manner with the aqueous mixture. A highest application rate of 4.48 kg/ha is achieved when 50 mg of test compound is employed. The treated pots and control pots were placed in a greenhouse with an approximately 15 hr photoperiod which was maintained at about 23-29° C. during the day and 22-28° C. during the night. Nutrients and water were added on a regular basis and supplemental lighting was provided with overhead metal halide 1000 Watt lamps as necessary. The water was added by top-irrigation. After 3 weeks the condition of the test plants that germinated and grew as compared with that of the untreated plants that germinated and grew was determined visually and scored on a scale of 0 to 100 percent where 0 corresponds to no injury and 100 corresponds to complete kill or no germination.

[4] = system: morningglory (Ipomoea hederacea); assay: Postemergence herbicidal activity, morningglory; conditions: foliar spray, visual after 2 weeks, 0 no injury, 100 complete kill
Description: as §1

[5] = system: Rox orange sorghum (Sorghum bicolor); assay: Postemergence herbicidal activity, Rox orange sorghum; conditions: foliar spray, visual after 2 weeks, 0 no injury, 100 complete kill
Description: as §1

[6] = system: barnyardgrass (Echinochloa crus-galli); assay: Preemergence herbicidal activity, barnyardgrass; conditions: soil spray, visual after 3 weeks, 0 no injury, 100 complete kill or no germination
Description: as §2

wild oats (Avena fatua) [7] = assay: Postemergence herbicidal activity, wild oats; conditions: foliar spray, visual after 2 weeks, 0 no injury, 100 complete kill
Description: as §1

[8] = system: lambsquarters (Chenopodium album); assay: Postemergence herbicidal activity, lambsquarters; conditions: foliar spray, visual after 2 weeks, 0 no injury, 100 complete kill
Description: as §1

viola (Viola tricolor) = assay: Postemergence herbicidal activity, viola; conditions: foliar spray, visual after 2 weeks, 0 no injury, 100 complete kill
Description: as §1

[9] = system: pigweed (Amaranthus retroflexus); assay: Postemergence herbicidal activity, pigweed; conditions: 7.8 ppm, foliar spray, visual after 2 weeks; 0 no injury, 100 complete kill
Description: as §1

[10] = system: velvetleaf (Abutilion theophrasti); assay: Postemergence herbicidal activity, velvetleaf; conditions: foliar spray, visual after 2 weeks, 0 no injury, 100 complete kill
Description: as §1

[11] = system: blackgrass (Alopecurus myosuroides); assay: Preemergence herbicidal activity, blackgrass; conditions: soil spray, visual after 3 weeks, 0 no injury, 100 complete kill or no germination
Description: as §2

wild oats (Avena fatua) [12] = assay: Preemergence herbicidal activity, wild oats; conditions: soil spray, visual after 3 weeks, 0 no injury, 100 complete kill or no germination
Description: as §2

[13] = system: giant foxtail (Setaria faberi); assay: Postemergence herbicidal activity, giant foxtail; conditions: foliar spray, visual after 2 weeks, 0 no injury, 100 complete kill
Description: as §1

[14] = system: wild buckwheat (Polygonum convolvulus); assay: Postemergence herbicidal activity, wild buckwheat; conditions: 7.8 ppm, foliar spray, visual after 2 weeks; 0 no injury, 100 complete kill
Description: as §1

[15] = system: wild poinsettia (Euphorbia heterophylla); assay: Preemergence herbicidal activity, wild poinsettia; conditions: soil spray, visual after 3 weeks, 0 no injury, 100 complete kill or no germination
Description: as §2

[16] = system: giant foxtail (Setaria faberi); assay: Preemergence herbicidal activity, giant foxtail; conditions: soil spray, visual after 3 weeks, 0 no injury, 100 complete kill or no germination
Description: as §2

[17] = system: cocklebur (Xanthium strumarium); assay: Postemergence herbicidal activity, cocklebur; conditions: foliar spray, visual after 2 weeks, 0 no injury, 100 complete kill
Description: as §1

[18] = system: pigweed (Amaranthus retroflexus); assay: Preemergence herbicidal activity, pigweed; conditions: soil spray, visual after 3 weeks, 0 no injury, 100 complete kill or no germination
Description: as §2

[19] = system: morningglory (Ipomoea hederacea); assay: Preemergence herbicidal activity, morningglory; conditions: soil spray, visual after 3 weeks, 0 no injury, 100 complete kill or no germination
Description: as §2

[20] = system: lambsquarters (Chenopodium album); assay: Preemergence herbicidal activity, lambsquarters; conditions: 8.8 g/Ha, soil spray, visual after 3 weeks; 0 no injury, 100 complete kill or no germination
Description: as §2

[21] = system: Rox orange sorghum (Sorghum bicolor); assay: Preemergence herbicidal activity, Rox orange sorghum; conditions: soil spray, visual after 3 weeks, 0 no injury, 100 complete kill or no germination
Description: as §2

[22] = system: velvetleaf (Abutilion theophrasti); assay: Preemergence herbicidal activity, velvetleaf; conditions: soil spray, visual after 3 weeks, 0 no injury, 100 complete kill or no germination
Description: as §2

[23] = system: cocklebur (Xanthium strumarium); assay: Preemergence herbicidal activity, cocklebur; conditions: 4.4 g/Ha, soil spray, visual after 3 weeks; 0 no injury, 100 complete kill or no germination
Description: as §2

COc1ccsc1S(=O)(=O)Nc1nc2c(Cl)cnc(OC)n2n1 [Compound 2]
ALOMY postemergence injury score 0-100 ([1]; 7.8 ppm): 70% | STEME postemergence injury score 0-100 ([2]; 7.8 ppm): 98% | DIGSA preemergence injury score 0-100 ([3]; 8.8 g/Ha): 100% | IPOHE postemergence injury score 0-100 ([4]; 7.8 ppm): 85% | SORBI postemergence injury score 0-100 ([5]; 7.8 ppm): 98% | ECHCG preemergence injury score 0-100 ([6]; 8.8 g/Ha): 75% | AVEFA postemergence injury score 0-100 (wild oats (Avena fatua) [7]; 7.8 ppm): 90% | CHEAL postemergence injury score 0-100 ([8]; 7.8 ppm): 90% | VIOTR postemergence injury score 0-100 (viola (Viola tricolor); 7.8 ppm): 95% | AMARE postemergence injury score 0-100 [9]: 98% | ABUTH postemergence injury score 0-100 ([10]; 7.8 ppm): 95% | ALOMY preemergence injury score 0-100 ([11]; 8.8 g/Ha): 95% | AVEFA preemergence injury score 0-100 (wild oats (Avena fatua) [12]; 8.8 g/Ha): 100% | SETFA postemergence injury score 0-100 ([13]; 7.8 ppm): 98% | POLCO postemergence injury score 0-100 [14]: 90% | EPHHL preemergence injury score 0-100 ([15]; 8.8 g/Ha): 90% | SETFA preemergence injury score 0-100 ([16]; 8.8 g/Ha): 100% | XANST postemergence injury score 0-100 ([17]; 7.8 ppm): 60% | AMARE preemergence injury score 0-100 ([18]; 8.8 g/Ha): 95% | IPOHE preemergence injury score 0-100 ([19]; 8.8 g/Ha): 80% | CHEAL preemergence injury score 0-100 [20]: 98% | SORBI preemergence injury score 0-100 ([21]; 8.8 g/Ha): 100% | ABUTH preemergence injury score 0-100 ([22]; 8.8 g/Ha): 75%

COc1cscc1S(=O)(=O)Nc1nc2c(OC)cnc(OC)n2n1 [Compound 7, N-(5,8-dimethoxy[1,2,4]triazolo[1,5-c]pyrimidin-2-yl)-4-methoxythiophene-3-sulfonamide]
ALOMY postemergence injury score 0-100 ([1]; 1.9 ppm): 98% | XANST preemergence injury score 0-100 [23]: 80% | STEME postemergence injury score 0-100 ([2]; 1.9 ppm): 98% | DIGSA preemergence injury score 0-100 ([3]; 4.4 g/Ha): 100% | IPOHE postemergence injury score 0-100 ([4]; 1.9 ppm): 80% | SORBI postemergence injury score 0-100 ([5]; 1.9 ppm): 98% | ECHCG preemergence injury score 0-100 ([6]; 4.4 g/Ha): 99% | AVEFA postemergence injury score 0-100 (wild oats (Avena fatua) [7]; 1.9 ppm): 98% | CHEAL postemergence injury score 0-100 ([8]; 1.9 ppm): 60% | VIOTR postemergence injury score 0-100 (viola (Viola tricolor); 1.9 ppm): 80% | ABUTH postemergence injury score 0-100 ([10]; 1.9 ppm): 80% | ALOMY preemergence injury score 0-100 ([11]; 4.4 g/Ha): 100% | AVEFA preemergence injury score 0-100 (wild oats (Avena fatua) [12]; 4.4 g/Ha): 100% | SETFA postemergence injury score 0-100 ([13]; 1.9 ppm): 100% | EPHHL preemergence injury score 0-100 ([15]; 4.4 g/Ha): 85% | SETFA preemergence injury score 0-100 ([16]; 4.4 g/Ha): 100% | XANST postemergence injury score 0-100 ([17]; 1.9 ppm): 80% | AMARE preemergence injury score 0-100 ([18]; 4.4 g/Ha): 95% | IPOHE preemergence injury score 0-100 ([19]; 4.4 g/Ha): 85% | SORBI preemergence injury score 0-100 ([21]; 4.4 g/Ha): 100% | ABUTH preemergence injury score 0-100 ([22]; 4.4 g/Ha): 95%

From patent US6645918B1, “N-([1,2,4]triazoloazinyl)thiophenesulfonamide compounds and their use as herbicides” (Dow AgroSciences LLC, priority 2000, dated 2003)
